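GI50 marks 50% less growth. At the TGI there is no net growth.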
Experiments:
Experiment in all cases: NCI-60 cell line screen, 384-well format; in the data active = GI50 below about 0.43 µM; inactive = the rest
M14 melanoma = tested on: M14 melanoma
LOX IMVI melanoma = tested on: LOX IMVI melanoma
NCI-H322M lung = tested on: NCI-H322M lung
786-0 renal = tested on: 786-0 renal
U251 glioblastoma = tested on: U251 glioblastoma
ACHN renal = tested on: ACHN renal
SF-268 CNS = tested on: SF-268 CNS
MDA-MB-468 breast = tested on: MDA-MB-468 breast
TK-10 renal = tested on: TK-10 renal
HCC-2998 colon = tested on: HCC-2998 colon
SK-OV-3 ovarian = tested on: SK-OV-3 ovarian
PC-3 prostate = tested on: PC-3 prostate
HOP-62 NSCLC = tested on: HOP-62 NSCLC
SK-MEL-5 melanoma = tested on: SK-MEL-5 melanoma
HS 578T breast = tested on: HS 578T breast
SK-MEL-2 melanoma = tested on: SK-MEL-2 melanoma
SNB-19 CNS = tested on: SNB-19 CNS
MOLT-4 leukemia = tested on: MOLT-4 leukemia
BT-549 breast = tested on: BT-549 breast
IGROV1 ovarian = tested on: IGROV1 ovarian
MCF7 breast = tested on: MCF7 breast
MALME-3M melanoma = tested on: MALME-3M melanoma
RXF 393 renal = tested on: RXF 393 renal
SW-620 colon = tested on: SW-620 colon
SF-295 CNS = tested on: SF-295 CNS
SK-MEL-28 melanoma = tested on: SK-MEL-28 melanoma
K-562 leukemia = tested on: K-562 leukemia
A549 NSCLC = tested on: A549 NSCLC
HL-60(TB) leukemia = tested on: HL-60(TB) leukemia
MDA-MB-435 melanoma = tested on: MDA-MB-435 melanoma
HOP-92 NSCLC = tested on: HOP-92 NSCLC
DU-145 prostate = tested on: DU-145 prostate
EKVX NSCLC = tested on: EKVX NSCLC
T-47D breast = tested on: T-47D breast
OVCAR-4 ovarian = tested on: OVCAR-4 ovarian
MDA-MB-231 breast = tested on: MDA-MB-231 breast
A498 renal = tested on: A498 renal
CCRF-CEM leukemia = tested on: CCRF-CEM leukemia
HCT-116 colon = tested on: HCT-116 colon
SR leukemia = tested on: SR leukemia
OVCAR-3 ovarian = tested on: OVCAR-3 ovarian
SNB-75 CNS = tested on: SNB-75 CNS
OVCAR-5 ovarian = tested on: OVCAR-5 ovarian
NCI-H460 NSCLC = tested on: NCI-H460 NSCLC
NCI-H226 lung = tested on: NCI-H226 lung
OVCAR-8 ovarian = tested on: OVCAR-8 ovarian
NCI-H522 lung = tested on: NCI-H522 lung
UACC-62 melanoma = tested on: UACC-62 melanoma
NCI/ADR-RES ovarian = tested on: NCI/ADR-RES ovarian
UACC-257 melanoma = tested on: UACC-257 melanoma
KM12 colon = tested on: KM12 colon
COLO 205 colon = tested on: COLO 205 colon
SN12C renal = tested on: SN12C renal
HT29 colon = tested on: HT29 colon
CAKI-1 renal = tested on: CAKI-1 renal
RPMI-8226 leukemia = tested on: RPMI-8226 leukemia
HCT-15 colon = tested on: HCT-15 colon
SF-539 CNS = tested on: SF-539 CNS
NCI-H23 lung = tested on: NCI-H23 lung

COc1ccc(S(=O)(=O)N2CCNCC2)cc1OC
> 100 µM: TGI (M14 melanoma) | TGI (LOX IMVI melanoma) | TGI (NCI-H322M lung) | TGI (786-0 renal) | TGI (U251 glioblastoma) | TGI (ACHN renal) | TGI (SF-268 CNS) | TGI (MDA-MB-468 breast) | TGI (TK-10 renal) | TGI (HCC-2998 colon) | TGI (SK-OV-3 ovarian) | TGI (PC-3 prostate) | TGI (HOP-62 NSCLC) | TGI (SK-MEL-5 melanoma) | TGI (HS 578T breast) | TGI (SK-MEL-2 melanoma) | TGI (SNB-19 CNS) | TGI (MOLT-4 leukemia) | TGI (BT-549 breast) | TGI (IGROV1 ovarian) | TGI (MCF7 breast) | TGI (MALME-3M melanoma) | TGI (RXF 393 renal) | TGI (SW-620 colon) | TGI (SF-295 CNS) | TGI (SK-MEL-28 melanoma) | TGI (K-562 leukemia) | TGI (A549 NSCLC) | TGI (HL-60(TB) leukemia) | TGI (MDA-MB-435 melanoma) | TGI (HOP-92 NSCLC) | TGI (DU-145 prostate) | TGI (EKVX NSCLC) | TGI (T-47D breast) | TGI (OVCAR-4 ovarian) | TGI (MDA-MB-231 breast) | TGI (A498 renal) | TGI (CCRF-CEM leukemia) | TGI (HCT-116 colon) | TGI (SR leukemia) | TGI (OVCAR-3 ovarian) | TGI (SNB-75 CNS) | TGI (OVCAR-5 ovarian) | TGI (NCI-H460 NSCLC) | TGI (NCI-H226 lung) | TGI (OVCAR-8 ovarian) | TGI (NCI-H522 lung) | TGI (UACC-62 melanoma) | TGI (NCI/ADR-RES ovarian) | TGI (UACC-257 melanoma) | TGI (KM12 colon) | TGI (COLO 205 colon) | TGI (SN12C renal) | TGI (HT29 colon) | TGI (CAKI-1 renal) | TGI (RPMI-8226 leukemia) | TGI (HCT-15 colon) | TGI (SF-539 CNS) | TGI (NCI-H23 lung)
inactive: GI50 (M14 melanoma) > 100 µM | GI50 (LOX IMVI melanoma) > 100 µM | GI50 (NCI-H322M lung) > 100 µM | GI50 ([…]-0 renal) > 100 µM | GI50 (U251 glioblastoma) > 100 µM | GI50 (ACHN renal) > 100 µM | GI50 (SF-268 CNS) > 100 µM | GI50 (MDA-MB-468 breast) > 100 µM | GI50 (TK-10 renal) > 100 µM | GI50 (HCC-2998 colon) > 100 µM | GI50 (SK-OV-3 ovarian) > 100 µM | GI50 (PC-3 prostate) > 100 µM | GI50 (HOP-62 NSCLC) > 100 µM | GI50 (SK-MEL-5 melanoma) > 100 µM | GI50 (HS 578T breast) > 100 µM | GI50 (SK-MEL-2 melanoma) > 100 µM | GI50 (SNB-19 CNS) > 100 µM | GI50 (MOLT-4 leukemia) > 100 µM | GI50 (BT-549 breast) > 100 µM | GI50 (IGROV1 ovarian) > 100 µM | GI50 (MCF7 breast) > 100 µM | GI50 (MALME-3M melanoma) > 100 µM | GI50 (RXF 393 renal) > 100 µM | GI50 (SW-620 colon) > 100 µM | GI50 (SF-295 CNS) > 100 µM | GI50 (SK-MEL-28 melanoma) > 100 µM | GI50 (K-562 leukemia) > 100 µM | GI50 (A549 NSCLC) > 100 µM | GI50 (HL-60(TB) leukemia) > 100 µM | GI50 (MDA-MB-435 melanoma) > 100 µM | GI50 (HOP-92 NSCLC) > 100 µM | GI50 (DU-145 prostate) > 100 µM | GI50 (EKVX NSCLC) > 100 µM | GI50 (T-47D breast) > 100 µM | GI50 (OVCAR-4 ovarian) > 100 µM | GI50 (MDA-MB-231 breast) > 100 µM | GI50 (A498 renal) > 100 µM | GI50 (CCRF-CEM leukemia) > 100 µM | GI50 (HCT-116 colon) > 100 µM | GI50 (SR leukemia) > 100 µM | GI50 (OVCAR-3 ovarian) > 100 µM | GI50 (SNB-75 CNS) > 100 µM | GI50 (OVCAR-5 ovarian) > 100 µM | GI50 (NCI-H460 NSCLC) > 100 µM | GI50 (NCI-H226 lung) > 100 µM | GI50 (OVCAR-8 ovarian) > 100 µM | GI50 (NCI-H522 lung) > 100 µM | GI50 (UACC-62 melanoma) > 100 µM | GI50 (NCI/ADR-RES ovarian) > 100 µM | GI50 (UACC-257 melanoma) > 100 µM | GI50 (KM12 colon) > 100 µM | GI50 (COLO 205 colon) > 100 µM | GI50 (SN12C renal) > 100 µM | GI50 (HT29 colon) > 100 µM | GI50 (CAKI-1 renal) > 100 µM | GI50 (RPMI-8226 leukemia) > 100 µM | GI50 (HCT-15 colon) > 100 µM | GI50 (SF-539 CNS) > 100 µM | GI50 (NCI-H23 lung) > 100 µM
